{"source": "patent US20140249056A1", "about": "“BILAYERS” (ISIS INNOVATION LIMITED, priority 2009, published 2014)", "key": {"[1]": {"biological_target": "T1, Kv1.3 (K+ channels from lymphocyte membranes) (Homo sapiens, UniProt P22001)", "T1 construct": "endogenously expressed voltage-gated potassium channels in primary lymphocytes; endogenous in cells; host or cells: SupT1 cells", "T1 sequence (P22001 whole entry)": "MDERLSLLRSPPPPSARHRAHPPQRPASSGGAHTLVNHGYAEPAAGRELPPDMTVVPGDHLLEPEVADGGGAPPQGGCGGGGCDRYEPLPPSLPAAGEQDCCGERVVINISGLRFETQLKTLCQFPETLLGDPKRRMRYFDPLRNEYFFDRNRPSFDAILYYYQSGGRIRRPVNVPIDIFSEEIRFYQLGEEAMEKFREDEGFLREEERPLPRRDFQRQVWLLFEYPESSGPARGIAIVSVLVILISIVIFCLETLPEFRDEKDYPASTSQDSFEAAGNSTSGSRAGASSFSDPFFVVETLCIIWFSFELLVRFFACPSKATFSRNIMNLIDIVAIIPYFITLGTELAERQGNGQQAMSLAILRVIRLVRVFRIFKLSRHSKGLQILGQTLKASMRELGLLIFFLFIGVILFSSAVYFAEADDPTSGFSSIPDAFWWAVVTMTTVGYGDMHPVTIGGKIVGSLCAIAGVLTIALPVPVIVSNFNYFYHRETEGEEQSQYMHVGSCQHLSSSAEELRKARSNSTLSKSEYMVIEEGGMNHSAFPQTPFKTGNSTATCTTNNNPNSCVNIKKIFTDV", "assay": "Bulk current block of voltage-gated potassium channels from lymphocyte (SupT1) membranes in droplet bilayer", "format": "biochemical", "details": "+50 mV", "method": "SupT1 cells were grown as a suspension culture and washed four times in buffer (150 mM KCl, 10 mM Hepes, pH 7.5). Cells were then lysed by hypo-osmotic shock, and membranes isolated by centrifugation and washing in isotonic buffer (140 mM KCl, 10 mM Hepes, pH 7.5). Membranes were diluted 1:10^4 and 1 μL of this solution was deposited on an agarose coated coverslip (1.5%). For bulk current blocking 4-aminopyridine a non-specific K+ channel blocker was used (5 mM, +50 mV). For specific blocking Kaliotoxin, a specific Kv-channel blocker, was used (50 μM, +50 mV)."}, "[2]": {"biological_target": "T2, bacterial potassium channel KcsA (Streptomyces lividans, UniProt P0A334)", "T2 construct": "made in house; host or cells: porin-free E. coli strain PC2889, vector pQE60", "T2 sequence (P0A334 1-160)": "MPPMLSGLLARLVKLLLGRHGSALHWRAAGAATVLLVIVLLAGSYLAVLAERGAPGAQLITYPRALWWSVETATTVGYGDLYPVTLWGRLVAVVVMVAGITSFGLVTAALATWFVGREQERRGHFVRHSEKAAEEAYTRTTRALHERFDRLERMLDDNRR", "assay": "Bulk current block of KcsA from E. coli membranes reconstituted in droplet bilayer", "format": "biochemical", "details": "150 mM Ba2+ (BaCl2) in droplet, +50 mV, n=5", "method": "KcsA was overexpressed in pQE60 (Qiagen, Germany) using a porin-free E. coli strain PC2889. Cells were disintegrated using a pressure-based cell homogenizer (TC5-612, Stansted Fluid Power, UK) and membranes isolated by centrifugation in water before freezing in liquid nitrogen. Sedimented membranes were resuspended in 150 mM KCl, 10 mM Hepes, pH 7.5. Membrane preparations were diluted 1:10^6 (for all cases dilutions are reported as volume:volume unless stated otherwise) and 1:10^8 for bulk and single channel recordings, respectively. Bulk and single channel recording was performed in 150 mM KCl, 10 mM Succinic acid, pH 4. Blocking experiments were performed using droplets containing 150 mM BaCl2, 10 mM Hepes, pH 7.5 (+50 mV, n=5)."}, "Gardos K+ ion channel": {"biological_target": "T3, Gardos K+ ion channel (Homo sapiens, UniProt O15554+P0DP23)", "T3 construct": "red blood cells were isolated from whole blood; from tissue; host or cells: red blood cells from whole blood", "assay": "Ca2+ dependent K+ flux in red blood cell membranes reconstituted in droplet bilayer", "format": "biochemical", "details": "5 mM Ca2+ versus none, 150 mM KCl, pH 7, +50 mV, n=5", "method": "Following previously published protocol (Gibson et al, J Physiol: 511(Pt1), 225-234 (1998)), red blood cells were isolated from whole blood of Sickle Cell or healthy individuals by centrifugation and washing four times in PBS buffer (137 mM NaCl, 2.7 mM KCl, 10 mM sodium phosphate dibasic, 2 mM potassium phosphate monobasic, pH 7.4, containing 1% glucose), removing remaining blood components by aspiration. Cells were lysed by hypo-osmotic shock in low salt buffer (15 mM NaCl, 10 mM EDTA, 10 mM Hepes, pH 7). Membranes were then sedimented by centrifugation and washed in low salt buffer four times before resuspension into isotonic buffer (150 mM NaCl or KCl or CaCl2, 10 mM Hepes, pH 7.4). For Gardos channel experiments, membranes were resuspended in isotonic buffer containing 150 mM KCl, 10 mM Hepes, pH 7. Droplets with or without Ca^2+ (150 mM KCl, +/−5 mM CaCl2, +/−5 mM KCl, 10 mM Hepes, pH 7, +50 mV, n=5) were used to observe Ca^2+ dependent K^+ flux. […] Further dilution of 1:20 was needed for single channel recordings."}, "[3]": {"tested_on": "KATP channel (Kir6.2 and SUR1)", "assay": "Bulk current block of KATP channels from Min6 cell membranes reconstituted in droplet bilayer", "format": "biochemical", "details": "glibenclamide 1 mM, +50 mV, 140 mM KCl, 10 mM Hepes, pH 7.5, n=5", "method": "For KATP channels, Kir6.2 and SUR1 (Sulfonylurea receptor) were co-expressed in Min6 cells. Frozen cells were subjected to three freeze-thaw cycles before they were sonicated for 1 minute (4° C., Sonorex, Bandelin, Germany, 320 W). After isolation of membranes by centrifugation, membranes were washed in isotonic buffer (140 mM KCl, 10 mM Hepes, pH 7.5), and diluted 1:5000. Membranes were incorporated into agarose by mixing (1:10 v:v) with cooling agarose (1.5%) and deposited onto the coverslip prior to device assembly. For single channel recordings the sample was diluted a further 10-fold. Electrical recordings were performed in 140 mM KCl, 10 mM Hepes, pH 7.5 in both droplet and agarose support. Bulk current block was obtained using glybenclamide (1 mM, +50 mV, n=5)."}, "[4]": {"biological_target": "Human NR1-1a/NR2A NMDA receptor (Homo sapiens, UniProt Q05586+Q12879)", "sequence (Q12879 23-1464, other chains not shown)": "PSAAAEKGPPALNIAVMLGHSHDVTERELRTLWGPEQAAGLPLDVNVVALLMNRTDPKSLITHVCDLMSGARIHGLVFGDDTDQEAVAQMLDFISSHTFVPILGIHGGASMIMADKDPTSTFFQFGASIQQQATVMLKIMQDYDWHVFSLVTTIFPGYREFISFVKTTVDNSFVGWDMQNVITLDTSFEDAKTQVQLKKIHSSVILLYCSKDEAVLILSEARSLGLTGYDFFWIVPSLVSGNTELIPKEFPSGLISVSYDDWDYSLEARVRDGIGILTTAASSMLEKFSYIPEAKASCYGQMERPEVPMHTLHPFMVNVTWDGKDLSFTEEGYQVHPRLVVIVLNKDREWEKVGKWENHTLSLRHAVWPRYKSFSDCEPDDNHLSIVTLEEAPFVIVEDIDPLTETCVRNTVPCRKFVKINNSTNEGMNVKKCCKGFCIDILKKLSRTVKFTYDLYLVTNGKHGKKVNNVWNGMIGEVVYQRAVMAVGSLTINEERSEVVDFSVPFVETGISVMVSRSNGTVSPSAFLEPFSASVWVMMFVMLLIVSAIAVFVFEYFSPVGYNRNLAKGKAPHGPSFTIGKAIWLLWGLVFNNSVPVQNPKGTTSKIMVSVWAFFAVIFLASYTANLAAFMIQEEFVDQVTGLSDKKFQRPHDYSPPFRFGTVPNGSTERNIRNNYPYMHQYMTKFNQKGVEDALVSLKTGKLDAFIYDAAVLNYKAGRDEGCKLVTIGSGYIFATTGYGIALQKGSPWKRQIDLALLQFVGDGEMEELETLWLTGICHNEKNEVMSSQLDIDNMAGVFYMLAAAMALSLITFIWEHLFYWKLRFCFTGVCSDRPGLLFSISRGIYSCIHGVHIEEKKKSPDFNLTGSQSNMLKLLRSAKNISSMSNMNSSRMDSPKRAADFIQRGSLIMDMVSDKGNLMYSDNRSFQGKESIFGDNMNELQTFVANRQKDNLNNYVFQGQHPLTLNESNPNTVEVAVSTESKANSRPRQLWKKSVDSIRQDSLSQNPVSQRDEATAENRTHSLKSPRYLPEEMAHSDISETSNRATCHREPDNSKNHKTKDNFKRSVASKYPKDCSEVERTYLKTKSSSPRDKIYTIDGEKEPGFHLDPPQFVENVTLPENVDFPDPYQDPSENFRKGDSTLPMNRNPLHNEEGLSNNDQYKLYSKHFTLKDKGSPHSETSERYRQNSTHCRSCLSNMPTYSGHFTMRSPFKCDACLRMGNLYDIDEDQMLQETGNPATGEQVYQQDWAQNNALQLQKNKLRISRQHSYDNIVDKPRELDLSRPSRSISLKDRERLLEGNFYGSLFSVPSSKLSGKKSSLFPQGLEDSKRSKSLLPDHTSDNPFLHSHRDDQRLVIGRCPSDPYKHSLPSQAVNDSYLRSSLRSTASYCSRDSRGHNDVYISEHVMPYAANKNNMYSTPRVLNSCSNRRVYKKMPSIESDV", "details": "glutamate 10 μM and glycine 10 μM added together, +50 mV, bulk current, n=5", "quoted_text": "Human NR1-1a/NR2A receptor subunits were expressed in a adherent mouse fibroblast 3T3 cell line. After mechanically detaching cells from culture flasks, cells were washed in isotonic buffer (3 times with 140 mM NaCl, 10 mM Hepes, pH 7.5), Cells were then mechanically disrupted by 30 s of ultrasound (Sonorex, Bandelin, Germany, 320 W) and four freeze-thaw cycles. After isolating the membranes by centrifugation and washing in the above buffer, the sample was diluted into the same buffer (1:10^3). […] Upon further dilution of the membrane preparation (1:100) single channels could be recorded (+50 mV applied voltage)."}}}
{"molecule": "Nc1ccncc1", "note": "[4-aminopyridine]", "values": [{"measurement": "block of bulk current (ion flux reduced)", "setting": "[1]; 5 mM 4-aminopyridine", "result": 96, "unit": "%"}]}
{"molecule": "[Ba+2].[Cl-].[Cl-]", "note": "[Ba^2+, BaCl2]", "values": [{"measurement": "block in current", "setting": "[2]", "result": 93, "unit": "%"}]}
{"molecule": "[Ca+2].[Cl-].[Cl-]", "note": "[Ca^2+, CaCl2]", "values": [{"measurement": "increase of Ca2+ induced K+ flux", "setting": "Gardos K+ ion channel", "result": "seven"}]}
{"molecule": "COc1ccc(Cl)cc1C(=O)NCCc1ccc(S(=O)(=O)NC(=O)NC2CCCCC2)cc1", "note": "[glibenclamide]", "values": [{"measurement": "bulk currents blocked", "setting": "[3]", "result": 91, "unit": "%"}]}
{"molecule": "NCC(=O)O", "note": "[glycine]", "values": [{"measurement": "increase in ionic flux", "setting": "[4]", "result": 98, "unit": "%"}]}
{"molecule": "Kaliotoxin: a specific Kv-channel blocker", "values": [{"measurement": "block of bulk current (ion flux reduced)", "setting": "[1]; 50 μM Kaliotoxin", "result": 99, "unit": "%"}, {"measurement": "block of bulk current (ion flux reduced)", "setting": "[1]; 50 μM Kaliotoxin, listed as KTX", "result": 99.4, "unit": "%"}]}
